# Assay results from US20090326053A1, “DIAGNOSTIC USES OF FOLLISTATIN-LIKE 1” (TRUSTEES OF BOSTON UNIVERSITY, priority 2008, published 2009).
# Assays:
# [1] = tested on: neonatal rat ventricular myocytes (NRVMs); assay: Nucleosome fragmentation ELISA in NRVMs; format: cell-based; conditions: inhibitor 10 μmol/L, 3 hours prior to H/R
# Description: (§1) Myocyte cultures. Primary cultures of neonatal rat ventricular myocytes (NRVCs) were prepared and incubated in Dulbecco's modified Eagle's medium (DMEM) supplemented with 7% Fetal Calf Serum (FCS)^42. Eighteen to 24 hours after preparation, cells were transfected with adenoviral vector at a multiplicity of infection (MOI) of 50 in DMEM without serum for 16 hours and incubated in DMEM without serum for more than 12 hours. Hypoxic conditions were generated using a GasPak system (Becton Dickinson) as described previously. For hypoxia/reoxygenation studies, cells were exposed 12 hr hypoxia followed by 24 hr reoxygenation.
# Detection of nucleosome fragmentation by ELISA. Nucleosome fragmentation was assessed by ELISA using Cell Death Detection kit (Roche) according to the manufacture's protocol. Cardiac myocytes were seeded in 96-well plates, transfected with adenoviral vector and exposed to H/R. In one assay, 8 wells are used for one group and assays are repeated three times. The extent of nucleosome fragmentation of each group was expressed as relative value in comparison with the value of control group (Ad-βgal transfected cells without H/R).
# [2] = tested on: neonatal rat ventricular myocytes (NRVMs); assay: TUNEL staining of NRVMs after hypoxia/reoxygenation (H/R); format: cell-based; conditions: inhibitor 10 μmol/L, 3 hours prior to H/R; P<0.05
# Description: as §1
# TUNEL staining. TUNEL staining for cultured cardiac myocytes was performed using the In Situ Cell Death detection kit (Roche) as described previously^2 with some modifications. In brief, cells are fixed by 4% paraformaldehyde in PBS, permeabilized with 0.1% Triton X-100 and incubated with anti-sarcomeric actinin antibody for 60 min followed by incubation with Cy3-conjugated anti-mouse IgG antibody. Cells were then incubated with TUNEL staining solution for 1 hr according to the manufacture's protocol. DAPI was used for nuclear staining. […] TUNEL positive myocytes were counted in randomly selected three fields of the slide and the experiments were repeated three times in duplicates.
smiles,measurement,setting,value
N#CC(=C(/N)Sc1ccccc1N)/C(C#N)=C(\N)Sc1ccccc1N [U0126],inhibitory effect of Fstl1 on nucleosome fragmentation after treatment with inhibitor,[1],significantly attenuated
same,protective action of Ad-Fstl1 on TUNEL positive cells after pre-incubation with inhibitor,[2],partially attenuated
